ChEMBL document CHEMBL1177848, “Synthesis of novel 6,6a,7,8-tetrahydro-5H-naphtho[1,2-e]pyrimido[4,5-b][1,4]diazepines under microwave irradiation as potential anti-tumor agents” (2010)
The source made the active and inactive calls. No cut-off for these calls is given here.

Key:
[1] = tested on: SF-539; assay: Growth inhibition of human SF539 cells after 48 hrs by sulforhodamine B assay; assay type: functional; conditions: SF-539, 48 h; for CC50: read-out: LC50 (the source's name)
[2] = tested on: SK-MEL-2; assay: Growth inhibition of human SK-MEL-2 cells after 48 hrs by sulforhodamine B assay; assay type: functional; conditions: SK-MEL-2, 48 h
[3] = tested on: CCRF-CEM; assay: Growth inhibition of human CCRF-CEM cells at 1 uM after 48 hrs by sulforhodamine B assay; assay type: functional, cell-based
[4] = tested on: SF530; assay: Growth inhibition of human SF530 cells at 1 uM after 48 hrs by sulforhodamine B assay; assay type: functional, cell-based
[5] = tested on: HCT-116; assay: Growth inhibition of human HCT116 cells after 48 hrs by sulforhodamine B assay; assay type: functional; conditions: HCT-116, 48 h
[6] = tested on: OVCAR-8; assay: Growth inhibition of human OVCAR8 cells after 48 hrs by sulforhodamine B assay; assay type: functional; conditions: OVCAR-8, 48 h
[7] = tested on: HCC 2998; assay: Growth inhibition of human HCC2998 cells after 48 hrs by sulforhodamine B assay; assay type: functional; conditions: HCC 2998, 48 h
[8] = tested on: NCI-H322M; assay: Growth inhibition of human […] cells after 48 hrs by sulforhodamine B assay; assay type: functional
[9] = tested on: HOP-62; assay: Growth inhibition of human HOP62 cells after 48 hrs by sulforhodamine B assay; assay type: functional; conditions: HOP-62, 48 h
[10] = tested on: UACC-62; assay: Growth inhibition of human UACC62 cells after 48 hrs by sulforhodamine B assay; assay type: functional; conditions: UACC-62, 48 h
[11] = tested on: DU-145; assay: Growth inhibition of human DU145 cells after 48 hrs by sulforhodamine B assay; assay type: functional; conditions: DU-145, 48 h
[12] = tested on: 786-0; assay: Growth inhibition of human 786-0 cells after 48 hrs by sulforhodamine B assay; assay type: functional; conditions: 786-0, 48 h
[13] = tested on: SF-268; assay: Growth inhibition of human SF268 cells after 48 hrs by sulforhodamine B assay; assay type: functional; conditions: SF-268, 48 h
[14] = tested on: Hs-578T; assay: Growth inhibition of human Hs 578T cells after 48 hrs by sulforhodamine B assay; assay type: functional
[15] = tested on: HL-60; assay: Growth inhibition of human HL-60(TB) cells after 48 hrs by sulforhodamine B assay; assay type: functional; conditions: HL-60, 48 h
[16] = tested on: CCRF-CEM; assay: Growth inhibition of human CCRF-CEM cells after 48 hrs by sulforhodamine B assay; assay type: functional
[17] = tested on: MOLT-4; assay: Growth inhibition of human MOLT4 cells after 48 hrs by sulforhodamine B assay; assay type: functional; conditions: MOLT-4, 48 h
[18] = tested on: A549; assay: Growth inhibition of human A549 cells after 48 hrs by sulforhodamine B assay; assay type: functional; conditions: A549, 48 h
[19] = tested on: M14; assay: Growth inhibition of human M14 cells after 48 hrs by sulforhodamine B assay; assay type: functional; conditions: M14, 48 h
[20] = tested on: K562; assay: Growth inhibition of human K562 cells after 48 hrs by sulforhodamine B assay; assay type: functional; conditions: K562, 48 h
[21] = tested on: SK-MEL-28; assay: Growth inhibition of human SK-MEL-28 cells after 48 hrs by sulforhodamine B assay; assay type: functional; conditions: SK-MEL-28, 48 h
[22] = tested on: SNB-75; assay: Growth inhibition of human SNB75 cells after 48 hrs by sulforhodamine B assay; assay type: functional; conditions: SNB-75, 48 h
[23] = Growth inhibition of human SF530 cells after 48 hrs by sulforhodamine B assay; assay type: functional; conditions: SF530, 48 h
[24] = read-out: LC50 (the source's name)

SMILES: Nc1nc(N)c2c(n1)NC(c1ccc(F)cc1)C1CCc3ccccc3C1=N2 (stereo not given)
- GI50 [1]: 1.71 µM
- CC50 [1]: 32 µM
- GI50 [2]: 5.73 µM
- LC50 [2]: 50.2 µM
- growth inhibition (GI) [3]: inactive
- growth inhibition (GI) [4]: inactive
- GI50 [5]: 3.04 µM
- LC50 [5]: 34.5 µM
- GI50 [6]: 8.07 µM
- LC50 (concentration killing 50% of cells) [6]: 80.7 µM
- GI50 [7]: 2.44 µM
- LC50 (concentration killing 50% of cells) [7]: 24.3 µM
- GI50 [8]: 9.63 µM
- CC50 [8, 24]: 48 µM
- GI50 [9]: 6 µM
- LC50 (concentration killing 50% of cells) [9]: 51.6 µM
- GI50 [10]: 3.76 µM
- LC50 [10]: 42.1 µM
- GI50 [11]: 7.45 µM
- LC50 (50% lethal concentration) [11]: 44.5 µM
- GI50 [12]: 6.9 µM
- LC50 (50% lethal concentration) [12]: 47.8 µM

SMILES: Nc1nc(N)c2c(n1)NC(c1ccccc1)C1CCc3ccccc3C1=N2 (stereo not given)
- GI50 [2]: 3.48 µM
- LC50 [2]: 43.6 µM
- GI50 [13]: 6.96 µM
- CC50 [13, 24]: 45.7 µM
- growth inhibition (GI) [3]: inactive
- GI50 [14]: 5.85 µM
- CC50 [14, 24]: > 100 µM
- growth inhibition (GI) [4]: inactive
- GI50 [5]: 2.97 µM
- LC50 [5]: 38 µM
- GI50 [15]: 2370 nM
- CC50 [15, 24]: > 100 µM
- GI50 [6]: 4.71 µM
- LC50 (concentration killing 50% of cells) [6]: > 100 µM
- GI50 [16]: 4.47 µM
- CC50 [16, 24]: > 100 µM
- GI50 [7]: 3.82 µM
- LC50 (concentration killing 50% of cells) [7]: 41.2 µM
- GI50 [17]: 2700 nM
- CC50 [17, 24]: > 100 µM
- GI50 [9]: 7.87 µM
- LC50 (concentration killing 50% of cells) [9]: 49.7 µM
- GI50 [10]: 3.11 µM
- LC50 [10]: 45 µM
- GI50 [11]: 4.38 µM
- LC50 (50% lethal concentration) [11]: 42.1 µM
- GI50 [18]: 7.11 µM
- CC50 [18, 24]: 82.2 µM
- GI50 [19]: 4.88 µM
- CC50 [19, 24]: 44.2 µM
- GI50 [20]: 3.42 µM
- CC50 [20, 24]: > 100 µM
- GI50 [21]: 7.72 µM
- CC50 [21, 24]: 45.1 µM
- GI50 [12]: 5.99 µM
- LC50 (50% lethal concentration) [12]: 45.7 µM
- GI50 [22]: 7.95 µM
- CC50 [22, 24]: 45.6 µM
- GI50 [23]: 5.81 µM
- CC50 [23, 24]: 43.7 µM

SMILES: Nc1nc(N)c2c(n1)NC(c1ccc(Cl)cc1)C1CCc3ccccc3C1=N2 (stereo not given)
- GI50 [1]: 6.17 µM
- CC50 [1]: 44.3 µM
- growth inhibition (GI) [3]: inactive
- growth inhibition (GI) [4]: inactive
- GI50 [5]: 3.72 µM
- LC50 [5]: 38.6 µM
- GI50 [10]: 3.66 µM
- LC50 [10]: 43.3 µM
